Starred links: 1 amine or outer side, 2 acyl side, 3 side chain; linkers in the order of their positions; H or OH if unused. Positions of bridges follow the written chain, without caps; N, C: chain ends. Non-standard residues stand in square brackets, D forms with d. Residues, ends and D or L forms follow the SMILES beside them. *: point of attachment. hPhe(3-Cl-4-CF3) = N[C@@H](CCc1ccc(C(F)(F)F)c(Cl)c1)C(=O)O; NMeDab(N,N-(CH2CF2CH2)) = CN[C@@H](CCN1CC(F)(F)C1)C(=O)O; hPhe(3-F,4-CF3) = N[C@@H](CCc1ccc(C(F)(F)F)c(F)c1)C(=O)O; X38 = CN([C@@H](Cc1cccc(OC(F)(F)F)c1)C(=O)[*:2])[*:1]; hPhe(4-CF3) = N[C@@H](CCc1ccc(C(F)(F)F)cc1)C(=O)O; NMePhe(4-Cl) = CN[C@@H](Cc1ccc(Cl)cc1)C(=O)O; X35 = CN([C@@](C)(Cc1ccccc1)C(=O)[*:2])[*:1]; NMePhe(4-F) = CN[C@@H](Cc1ccc(F)cc1)C(=O)O; hPhe(4-Cl) = N[C@@H](CCc1ccc(Cl)cc1)C(=O)O; NMeMet(O2) = CN[C@@H](CCS(C)(=O)=O)C(=O)O; NMeAla(cPent) = CN[C@@H](CC1CCCC1)C(=O)O; NMeGly(cPent) = CN[C@H](C(=O)O)C1CCCC1; Phe(3-I) = N[C@@H](Cc1cccc(I)c1)C(=O)O; Phe(4-Me) = Cc1ccc(C[C@H](N)C(=O)O)cc1; dβ3hPip = O=C(C[C@H]1CCCCN1[*:1])[*:2]; NMeY = CN[C@@H](Cc1ccc(O)cc1)C(=O)O; NMeCha = CN[C@@H](CC1CCCCC1)C(=O)O; Azetidine(3,3-F2) = FC1(F)CN(*)C1; NMeChg = CN[C@H](C(=O)O)C1CCCCC1; NMeF = CN[C@@H](Cc1ccccc1)C(=O)O; NMeD = CN[C@@H](CC(=O)O)C(=O)O; NMeL = CN[C@@H](CC(C)C)C(=O)O; NMehSer = CN[C@@H](CCO)C(=O)O; NMeV = CN[C@H](C(=O)O)C(C)C; d(β3hA) = C[C@@H](N)CC(=O)O; Iva = CC[C@](C)(N)C(=O)O; NMeA = CN[C@@H](C)C(=O)O; NMeAib = CNC(C)(C)C(=O)O; Nle = CCCC[C@H](N)C(=O)O; Piperidide = C1CCN(*)CC1; Pyrrolidide = C1CCN(*)C1; Ac5c = NC1(C(=O)O)CCCC1; Aze = O=C(O)[C@@H]1CCN1; Ac4c = NC1(C(=O)O)CCC1; NBuGly = CCCCNCC(=O)O; Sar = CNCC(=O)O; Propyl = CCC*
Each molecule was assayed against T1, Kras and SOS1 (biotin-tagged human Kras loaded with GDP, His-tagged human SOS1) (Homo sapiens, UniProt P01116, G12D) (assay: Protein-protein interaction inhibition between Kras and SOS1 (KrasGl2D-SOS PPI) using AlphaScreen). Settings: AlphaScreen; biotin-tagged human Kras loaded with GDP, His-tagged human SOS1; read-out: KRAS G12D-SOS PPI IC50.
T1 construct: made in house; host or cells: E. coli (stated for Kras only)
T1 sequence (P01116 1-188 isoform P01116-2 G12D): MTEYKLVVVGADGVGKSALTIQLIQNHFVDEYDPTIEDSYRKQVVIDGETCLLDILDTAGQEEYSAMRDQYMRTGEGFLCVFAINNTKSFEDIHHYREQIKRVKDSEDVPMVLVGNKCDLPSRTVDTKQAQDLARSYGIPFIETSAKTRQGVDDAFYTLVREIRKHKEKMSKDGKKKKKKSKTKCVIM
Format: binding
Outline: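 Binding between SOS1 and Kras is detected as bead-proximity luminescence: illuminate Ni-conjugated donors (680 nm), collect 520-620 nm emission from streptavidin-conjugated acceptors; Kras carries biotin and GDP loaded after purification, SOS1 carries a His tag.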

SMILES | IC50 [nM]
CCCCN1CC(=O)N(C)CC(=O)N(C)[C@@H](CC2CCCCC2)C(=O)N(C)CC(=O)N[C@@H](CCc2ccc(C(F)(F)F)c(Cl)c2)C(=O)N2CCC[C@H]2C(=O)NC2(CCCC2)C(=O)N(C)[C@@H](C(C)C)C(=O)N[C@H](C)CC(=O)N(C)[C@@H](CC(C)C)C(=O)N[C@@H]([C@@H](C)CC)C1=O [Compound 123] (cyclo([Ac5c][NMeV][d(β3hA)][NMeL]I[NBuGly][Sar][NMeCha][Sar][hPhe(3-Cl-4-CF3)]P)) | 170
CCCC[C@@H]1NC(=O)[C@H](Cc2cccc(I)c2)NC(=O)CN(C)C(=O)[C@H](Cc2ccc(OC)cc2)N(C)C(=O)CN(C)C(=O)CN(C)C(=O)[C@H]([C@@H](C)CC)NC(=O)[C@H](CC(C)C)N(C)C(=O)C[C@@H](C(=O)N2CCCCC2)N(C)C(=O)[C@H](CC(C)C)NC(=O)[C@](C)(Cc2ccccc2)N(C)C1=O [Compound 125] ([NMeL]I[Sar][Sar][NMeY](Me)[Sar][Phe(3-I)][Nle][X35]L[NMeD]-Piperidide; lactam N-11) | 2.8
CCCOC[C@@H]1NC(=O)[C@H](CC(=O)N2CC(F)(F)C2)N(C)C(=O)[C@H](CCc2ccc(C(F)(F)F)c(Cl)c2)NC(=O)CN(C)C(=O)[C@H](CC2CCCCC2)N(C)C(=O)CN(C)C(=O)CN(C)C(=O)[C@H]([C@@H](C)CC)NC(=O)[C@H](C)N(C)C(=O)C[C@@H](C(=O)N2CCCCC2)N(C)C(=O)[C@H](C(C)C)N(C)C1=O [Compound 129] ([NMeA]I[Sar][Sar][NMeCha][Sar][hPhe(3-Cl-4-CF3)][NMeD](Azetidine(3,3-F2))S(Propyl)[NMeV][NMeD]-Piperidide; lactam N-11) | 11
CC[C@H](C)[C@@H]1NC(=O)[C@H](CC(C)C)N(C)C(=O)C[C@@H](C(=O)N(C)C)N(C)C(=O)[C@H](C2CCCC2)N(C)C(=O)[C@H](COC)NC(=O)[C@H](CCN2CC(F)(F)C2)N(C)C(=O)[C@H](CCc2ccc(C(F)(F)F)c(Cl)c2)NC(=O)CN(C)C(=O)[C@H](CC2CCCCC2)N(C)C(=O)[C@@H]2CCN2C(=O)[C@H](C)N(C)C1=O [Compound 130] ([NMeL]I[NMeA][Aze][NMeCha][Sar][hPhe(3-Cl-4-CF3)][NMeDab(N,N-(CH2CF2CH2))]S(Me)[NMeGly(cPent)][NMeD]-NMe2; lactam N-11) | 10
CC[C@H](C)[C@@H]1NC(=O)[C@H](CC(C)C)N(C)C(=O)C[C@@H](C)NC(=O)[C@H](CC(C)C)N(C)C(=O)C2(CCC2)NC(=O)[C@@H]2CCCN2C(=O)[C@H](CCc2ccc(C(F)(F)F)c(F)c2)NC(=O)CN(C)C(=O)[C@H](CC2CCCCC2)N(C)C(=O)CN(C)C(=O)CN(C)C1=O [Compound 133] (cyclo([Ac4c][NMeL][d(β3hA)][NMeL]I[Sar][Sar][NMeCha][Sar][hPhe(3-F,4-CF3)]P)) | 23
CC[C@H](C)[C@@H]1NC(=O)[C@H](C)N(C)C(=O)C[C@@H](C(=O)N2CCCCC2)N(C)C(=O)[C@H](C(C)C)N(C)C(=O)C2(CCCC2)NC(=O)[C@@H]2CCCN2C(=O)[C@H](CCc2ccc(C(F)(F)F)c(Cl)c2)NC(=O)[C@H]2CCCN2C(=O)[C@H](CC2CCCCC2)N(C)C(=O)CN(C)C(=O)CN(C)C1=O [Compound 135] ([NMeA]I[Sar][Sar][NMeCha][dP][hPhe(3-Cl-4-CF3)]P[Ac5c][NMeV][NMeD]-Piperidide; lactam N-11) | 38
CC[C@H](C)[C@@H]1NC(=O)[C@H](CC(C)C)N(C)C(=O)C[C@H]2CCCCN2C(=O)[C@H](C(C)C)N(C)C(=O)C2(CCCC2)NC(=O)[C@@H]2CCCN2C(=O)[C@H](CCc2ccc(C(F)(F)F)c(F)c2)NC(=O)CN(C)C(=O)[C@H](CC2CCCCC2)N(C)C(=O)CN(C)C(=O)CN(C)C1=O [Compound 142] (cyclo([Ac5c][NMeV][dβ3hPip][NMeL]I[Sar][Sar][NMeCha][Sar][hPhe(3-F,4-CF3)]P)) | 38
CCCC[C@@H]1NC(=O)[C@H](Cc2cccc(I)c2)NC(=O)CN(C)C(=O)[C@H](Cc2ccc(Cl)cc2)N(C)C(=O)CN(C)C(=O)CN(C)C(=O)[C@H]([C@@H](C)CC)NC(=O)[C@H](CC(C)C)N(C)C(=O)C[C@@H](C(=O)N2CCCCC2)N(C)C(=O)[C@H](CC(C)C)NC(=O)[C@H](Cc2cccc(OC(F)(F)F)c2)N(C)C1=O [Compound 143] ([NMeL]I[Sar][Sar][NMePhe(4-Cl)][Sar][Phe(3-I)][Nle][X38]L[NMeD]-Piperidide; lactam N-11) | 68
CC[C@H](C)[C@@H]1NC(=O)[C@H](C)N(C)C(=O)C[C@@H](C)NC(=O)[C@H](C2CCCC2)N(C)C(=O)C2(CCCC2)NC(=O)[C@@H]2CCCN2C(=O)[C@H](CCc2ccc(C(F)(F)F)c(Cl)c2)NC(=O)CN(C)C(=O)[C@H](Cc2ccc(F)cc2)N(C)C(=O)[C@@H]2CCCN2C(=O)CN(C)C1=O [Compound 146] (cyclo([Ac5c][NMeGly(cPent)][d(β3hA)][NMeA]I[Sar]P[NMePhe(4-F)][Sar][hPhe(3-Cl-4-CF3)]P)) | 4
COC[C@@H]1NC(=O)[C@H](CC(C)C)N(C)C(=O)C[C@@H](C(=O)N2CCCCC2)N(C)C(=O)[C@H](C2CCCCC2)N(C)C(=O)C2(CCCC2)NC(=O)[C@@H]2CCCN2C(=O)[C@H](CCc2ccc(C(F)(F)F)c(Cl)c2)NC(=O)CN(C)C(=O)[C@H](CC2CCCCC2)N(C)C(=O)CN(C)C(=O)CN(C)C1=O [Compound 148] ([NMeL]S(Me)[Sar][Sar][NMeCha][Sar][hPhe(3-Cl-4-CF3)]P[Ac5c][NMeChg][NMeD]-Piperidide; lactam N-11) | 1.8
CC[C@H](C)[C@@H]1NC(=O)[C@H](CC(C)C)N(C)C(=O)C[C@@H](C)NC(=O)[C@H](C(C)C)N(C)C(=O)[C@](C)(CC)NC(=O)[C@@H]2CCCN2C(=O)[C@H](CCc2ccc(C(F)(F)F)c(Cl)c2)NC(=O)CN(C)C(=O)[C@H](CC2CCCCC2)N(C)C(=O)CN(C)C(=O)CN(C)C1=O [Compound 149] (cyclo(I[Sar][Sar][NMeCha][Sar][hPhe(3-Cl-4-CF3)]P[Iva][NMeV][d(β3hA)][NMeL])) | 51
CC[C@H](C)[C@@H]1NC(=O)[C@H](C)N(C)C(=O)C[C@@H](C(=O)N2CCCC2)NC(=O)[C@H](C(C)C)N(C)C(=O)[C@H](Cc2ccccc2)N(C)C(=O)[C@H](CC(C)C)N(C)C(=O)[C@H](CCc2ccc(C(F)(F)F)cc2)NC(=O)CN(C)C(=O)[C@H](Cc2ccc(Cl)cc2)N(C)C(=O)CN(C)C(=O)CN(C)C1=O [Compound 152] ([NMeA]I[Sar][Sar][NMePhe(4-Cl)][Sar][hPhe(4-CF3)][NMeL][NMeF][NMeV]D-Pyrrolidide; lactam N-11) | 110
CCCOC[C@@H]1NC(=O)[C@H](CCN2CC(F)(F)C2)N(C)C(=O)[C@H](CCc2ccc(C(F)(F)F)c(Cl)c2)NC(=O)CN(C)C(=O)[C@H](CC2CCCCC2)N(C)C(=O)CN(C)C(=O)CN(C)C(=O)[C@H]([C@@H](C)CC)NC(=O)[C@H](C)N(C)C(=O)C[C@@H](C(=O)N2CCCCC2)N(C)C(=O)[C@H](C(C)C)N(C)C1=O [Compound 154] ([NMeA]I[Sar][Sar][NMeCha][Sar][hPhe(3-Cl-4-CF3)][NMeDab(N,N-(CH2CF2CH2))]S(Propyl)[NMeV][NMeD]-Piperidide; lactam N-11) | 4.8
CC[C@H](C)[C@@H]1NC(=O)[C@H](C(C)C)N(C)C(=O)C[C@@H](C)NC(=O)[C@H](CC(C)C)N(C)C(=O)C2(CCCC2)NC(=O)[C@H](CC(C)C)N(C)C(=O)[C@H](CCc2ccc(C(F)(F)F)c(Cl)c2)NC(=O)CN(C)C(=O)[C@H](Cc2ccc(Cl)cc2)N(C)C(=O)[C@@H]2CCN2C(=O)CN(C)C1=O [Compound 158] (cyclo([Ac5c][NMeL][d(β3hA)][NMeV]I[Sar][Aze][NMePhe(4-Cl)][Sar][hPhe(3-Cl-4-CF3)][NMeL])) | 10
CC[C@H](C)[C@@H]1NC(=O)[C@H](CC(C)C)N(C)C(=O)C[C@@H](C(=O)N2CCCCC2)N(C)C(=O)[C@H](C2CCCCC2)N(C)C(=O)C2(CCCC2)NC(=O)[C@@H]2CCCN2C(=O)[C@H](CCc2ccc(C(F)(F)F)c(Cl)c2)NC(=O)CN(C)C(=O)[C@H](CCOC)N(C)C(=O)CN(C)C(=O)CN(C)C1=O [Compound 159] ([NMeL]I[Sar][Sar][NMehSer](Me)[Sar][hPhe(3-Cl-4-CF3)]P[Ac5c][NMeChg][NMeD]-Piperidide; lactam N-11) | 2.4
CC[C@H](C)[C@@H]1NC(=O)[C@H](CC(C)C)N(C)C(=O)C[C@@H](C(=O)N2CCCCC2)N(C)C(=O)[C@H](CCS(C)(=O)=O)N(C)C(=O)C2(CCCC2)NC(=O)[C@@H]2CCCN2C(=O)[C@H](CCc2ccc(C(F)(F)F)c(Cl)c2)NC(=O)CN(C)C(=O)[C@H](CC2CCCCC2)N(C)C(=O)CN(C)C(=O)CN(C)C1=O [Compound 162] ([NMeL]I[Sar][Sar][NMeCha][Sar][hPhe(3-Cl-4-CF3)]P[Ac5c][NMeMet(O2)][NMeD]-Piperidide; lactam N-11) | 230
CC[C@H](C)[C@@H]1NC(=O)[C@H](CC(C)C)N(C)C(=O)C[C@@H](C(=O)N2CCCCC2)N(C)C(=O)[C@H](CC(C)C)NC(=O)C(C)(C)N(C)C(=O)[C@H](Cc2ccc(C)cc2)NC(=O)[C@H](Cc2cccc(I)c2)NC(=O)CN(C)C(=O)[C@H](CC2CCCCC2)N(C)C(=O)CN(C)C(=O)CN(C)C1=O [Compound 166] ([NMeL]I[Sar][Sar][NMeCha][Sar][Phe(3-I)][Phe(4-Me)][NMeAib]L[NMeD]-Piperidide; lactam N-11) | 21
CC[C@H](C)[C@@H]1NC(=O)[C@H](CC(C)C)N(C)C(=O)C[C@@H](C(=O)N2CCCCC2)N(C)C(=O)[C@H](C(C)C)N(C)C(=O)C2(CCCC2)NC(=O)[C@@H]2CCCN2C(=O)[C@H](CCc2ccc(Cl)cc2)NC(=O)CN(C)C(=O)[C@H](CC2CCCC2)N(C)C(=O)CN(C)C(=O)CN(C)C1=O [Compound 167] ([NMeL]I[Sar][Sar][NMeAla(cPent)][Sar][hPhe(4-Cl)]P[Ac5c][NMeV][NMeD]-Piperidide; lactam N-11) | 58
